This assay deals with T1, PHD2 (Homo sapiens, UniProt Q9GZT9).
T1 construct: FLAG-tagged full length PHD2 expressed in and purified from baculovirus-infected Sf9 cells; FLAG; made in house; host or cells: baculovirus-infected Sf9 cells
T1 sequence (Q9GZT9 whole entry, species assumed): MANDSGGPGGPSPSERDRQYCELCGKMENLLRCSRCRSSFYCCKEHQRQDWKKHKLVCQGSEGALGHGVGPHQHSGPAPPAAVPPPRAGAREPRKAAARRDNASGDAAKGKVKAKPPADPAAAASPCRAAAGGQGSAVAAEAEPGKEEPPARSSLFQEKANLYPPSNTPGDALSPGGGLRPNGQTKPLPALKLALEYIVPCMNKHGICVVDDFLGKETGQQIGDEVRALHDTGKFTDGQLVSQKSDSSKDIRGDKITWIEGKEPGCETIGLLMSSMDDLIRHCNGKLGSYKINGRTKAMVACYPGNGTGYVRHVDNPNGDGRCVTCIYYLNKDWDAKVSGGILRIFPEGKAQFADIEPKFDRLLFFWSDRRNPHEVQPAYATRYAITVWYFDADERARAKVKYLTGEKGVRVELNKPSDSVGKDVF
In words: PHD2 inhibition assay (time resolved fluorescence, HIF-1α peptide hydroxylation / VHL complex detection). The format is biochemical. Conditions: FLAG-tagged full length PHD2; 0.2 μM 2-oxoglutarate, 0.5 μM HIF-1α peptide. The protocol:
To each well of a 96-well plate was added 1 μL of test compound in DMSO and 20 μl of assay buffer (50 mM Iris pH 7.4/0.01% Tween-20/0.1 mg/ml bovine serum albumin/10 μM ferrous sulfate/1 mM sodium ascorbate/20 μg/ml catalase) containing 0.15 μg/ml FLAG-tagged full length PHD2 expressed in and purified from baculovirus-infected Sf9 cells. After a 30 min preincubation at room temperature, the enzymatic reactions were initiated by the addition of […] of substrates (final concentrations of 0.2 μM 2-oxoglutarate and 0.5 μM HIF-1α peptide biotinyl-DLDLEMLAPYIPMDDDFQL (SEQ ID NO:1)). After 2 hr at room temperature, the reactions were terminated and signals were developed by the addition of a 25 μL quench/detection mix to a final concentration of 1 mM ortho-phenanthroline, 0.1 mM EDTA, 0.5 nM anti-(His)6 LANCE reagent (Perkin-Elmer Life Sciences), 100 nM AF647-labeled streptavidin (Invitrogen), and 2 μg/ml (His)-6-VHL complex (S. Tan(2001) Protein Expr. Purif. 21, 224-234). The ratio of time resolved fluorescence signals at 665 and 620 nm was determined, and percent inhibition was calculated relative to an uninhibited control sample run in parallel.
`O=C(Nc1cnc(-n2cccn2)nc1O)c1cccc(-c2ccccc2)c1` [Compound 3-18, N-[4-hydroxy-2-(1H-pyrazol-1-yl)pyrimidin-5-yl]biphenyl-3-carboxamide]: the IC50 (usually the midpoint of a concentration-inhibition curve) lay in the range of 20 to 100 nM. For `O=C(Nc1cnc(-n2cccn2)nc1O)c1ccc(-c2ccccc2)cc1` [Compound 3-19, N-[4-hydroxy-2-(1H-pyrazol-1-yl)pyrimidin-5-yl]biphenyl-4-carboxamide] the value was 0.5 to 20 nM; for `O=C(Nc1cnc(-n2cccn2)nc1O)c1ccccc1Oc1ccccc1` [Compound 3-20, N-(4-hydroxy-2-(1H-pyrazol-1-yl)pyrimidin-5-yl)-2-phenoxybenzamide], 20 to 100 nM. Take `O=C(Nc1cnc(-n2cccn2)nc1O)c1cccc(Oc2ccccc2)c1` [Compound 3-21, N-(4-hydroxy-2-(1H-pyrazol-1-yl)pyrimidin-5-yl)-3-phenoxybenzamide]: the IC50 was in the range of 0.5 to 20 nM. `O=C(Nc1cnc(-n2cccn2)nc1O)c1ccc(Oc2ccccc2)cc1` [Compound 3-22, N-(4-hydroxy-2-(1H-pyrazol-1-yl)pyrimidin-5-yl)-4-phenoxybenzamide] registered an IC50 of 0.5 to 20 nM. For `O=C(Cc1ccccc1Cl)Nc1cnc(-n2cccn2)nc1O` [Compound 3-23, 2-(2-chlorophenyl)-N-(4-hydroxy-2-(1H-pyrazol-1-yl)pyrimidin-5-yl)acetamide] the value was 0.5 to 20 nM; for `O=C(Cc1cccc(Cl)c1)Nc1cnc(-n2cccn2)nc1O` [Compound 3-24, 2-(3-chlorophenyl)-N-(4-hydroxy-2-(1H-pyrazol-1-yl)pyrimidin-5-yl)acetamide], 0.5 to 20 nM.

Compound `O=C(Cc1ccc(Cl)cc1)Nc1cnc(-n2cccn2)nc1O` [Compound 3-25, 2-(4-chlorophenyl)-N-(4-hydroxy-2-(1H-pyrazol-1-yl)pyrimidin-5-yl)acetamide] came in with an IC50 of 0.5 to 20 nM.

The compound `N#Cc1cccc(CC(=O)Nc2cnc(-n3cccn3)nc2O)c1` [Compound 3-26, 2-(3-cyanophenyl)-N-(4-hydroxy-2-(1H-pyrazol-1-yl)pyrimidin-5-yl)acetamide] gave an IC50 of 0.5 to 20 nM. The result for `O=C(Cc1ccccc1C(F)(F)F)Nc1cnc(-n2cccn2)nc1O` [Compound 3-27, 2-(2-(trifluoromethyl)phenyl)-N-(4-hydroxy-2-(1H-pyrazol-1-yl)pyrimidin-5-yl)acetamide] reads 0.5 to 20 nM; that for `O=C(Cc1cccc(C(F)(F)F)c1)Nc1cnc(-n2cccn2)nc1O` [Compound 3-28, 2-(3-(trifluoromethyl)phenyl)-N-(4-hydroxy-2-(1H-pyrazol-1-yl)pyrimidin-5-yl)acetamide], 0.5 to 20 nM; that for `O=C(Cc1ccc(C(F)(F)F)cc1)Nc1cnc(-n2cccn2)nc1O` [Compound 3-29, 2-(4-(trifluoromethyl)phenyl)-N-(4-hydroxy-2-(1H-pyrazol-1-yl)pyrimidin-5-yl)acetamide], 0.5 to 20 nM. The result for `COc1ccccc1CC(=O)Nc1cnc(-n2cccn2)nc1O` [Compound 3-30, N-(4-hydroxy-2-(1H-pyrazol-1-yl)pyrimidin-5-yl)-2-(2-methoxyphenyl)acetamide] reads 0.5 to 20 nM; that for `COc1cccc(CC(=O)Nc2cnc(-n3cccn3)nc2O)c1` [Compound 3-31, N-(4-hydroxy-2-(1H-pyrazol-1-yl)pyrimidin-5-yl)-2-(3-methoxyphenyl)acetamide], 0.5 to 20 nM; that for `COc1ccc(CC(=O)Nc2cnc(-n3cccn3)nc2O)cc1` [Compound 3-32, N-(4-hydroxy-2-(1H-pyrazol-1-yl)pyrimidin-5-yl)-2-(4-methoxyphenyl)acetamide], 0.5 to 20 nM. The result for `CC(C(=O)Nc1cnc(-n2cccn2)nc1O)c1ccccc1` (centres unmarked) [Compound 3-33, N-(4-hydroxy-2-(1H-pyrazol-1-yl)pyrimidin-5-yl)-2-phenylpropanamide] reads 0.5 to 20 nM; that for `CCC(C(=O)Nc1cnc(-n2cccn2)nc1O)c1ccccc1` (centres unmarked) [Compound 3-34, N-(4-hydroxy-2-(1H-pyrazol-1-yl)pyrimidin-5-yl)-2-phenylbutanamide], 0.5 to 20 nM.

These data come from patent US9006433B2, “Substituted pyrimidines” (Merck Sharp & Dohme Corp., priority 2010, dated 2015).
